PMC3145970, “Specific CLK Inhibitors from a Novel Chemotype for Regulation of Alternative Splicing” (Chemistry & Biology, 2011)
Where two headings read alike, the source gives them in different places.

Tests used:
Assay in all cases: Thermal stability shift assay
Format in all cases: binding
[1] = target: T1, PKCz (Homo sapiens, UniProt Q05513); details: read-out: Tm shift PKCz
T1 sequence (Q05513 1-592): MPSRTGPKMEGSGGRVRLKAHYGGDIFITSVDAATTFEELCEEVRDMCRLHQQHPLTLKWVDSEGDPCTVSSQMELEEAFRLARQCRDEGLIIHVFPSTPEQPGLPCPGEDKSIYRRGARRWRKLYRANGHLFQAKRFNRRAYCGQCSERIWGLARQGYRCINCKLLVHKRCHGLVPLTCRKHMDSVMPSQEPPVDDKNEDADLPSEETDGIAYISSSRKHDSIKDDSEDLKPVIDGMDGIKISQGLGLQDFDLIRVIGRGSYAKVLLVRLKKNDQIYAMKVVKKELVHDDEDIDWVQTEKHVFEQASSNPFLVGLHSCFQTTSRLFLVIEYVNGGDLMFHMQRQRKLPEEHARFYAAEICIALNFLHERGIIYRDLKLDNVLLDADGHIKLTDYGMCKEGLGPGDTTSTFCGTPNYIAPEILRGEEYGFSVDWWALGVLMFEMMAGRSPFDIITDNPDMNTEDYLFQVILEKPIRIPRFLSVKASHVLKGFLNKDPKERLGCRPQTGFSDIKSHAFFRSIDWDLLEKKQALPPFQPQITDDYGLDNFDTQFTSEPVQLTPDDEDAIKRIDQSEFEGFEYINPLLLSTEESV
Summary of the method: (§1)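 Thermal denaturation is measured by SyproOrange fluorescence in a real-time PCR machine. Each sample holds 2 μM protein and 10 μM compound in 10 mM HEPES pH 7.5 with 500 mM NaCl.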

[2] = target: PKN2 (Homo sapiens, UniProt Q16513); details: read-out: Tm shift PKN2
Summary of the method: as §1

[3] = target: T2, TTK (Homo sapiens, UniProt P33981); details: read-out: Tm shift TTK
T2 sequence (P33981 1-857): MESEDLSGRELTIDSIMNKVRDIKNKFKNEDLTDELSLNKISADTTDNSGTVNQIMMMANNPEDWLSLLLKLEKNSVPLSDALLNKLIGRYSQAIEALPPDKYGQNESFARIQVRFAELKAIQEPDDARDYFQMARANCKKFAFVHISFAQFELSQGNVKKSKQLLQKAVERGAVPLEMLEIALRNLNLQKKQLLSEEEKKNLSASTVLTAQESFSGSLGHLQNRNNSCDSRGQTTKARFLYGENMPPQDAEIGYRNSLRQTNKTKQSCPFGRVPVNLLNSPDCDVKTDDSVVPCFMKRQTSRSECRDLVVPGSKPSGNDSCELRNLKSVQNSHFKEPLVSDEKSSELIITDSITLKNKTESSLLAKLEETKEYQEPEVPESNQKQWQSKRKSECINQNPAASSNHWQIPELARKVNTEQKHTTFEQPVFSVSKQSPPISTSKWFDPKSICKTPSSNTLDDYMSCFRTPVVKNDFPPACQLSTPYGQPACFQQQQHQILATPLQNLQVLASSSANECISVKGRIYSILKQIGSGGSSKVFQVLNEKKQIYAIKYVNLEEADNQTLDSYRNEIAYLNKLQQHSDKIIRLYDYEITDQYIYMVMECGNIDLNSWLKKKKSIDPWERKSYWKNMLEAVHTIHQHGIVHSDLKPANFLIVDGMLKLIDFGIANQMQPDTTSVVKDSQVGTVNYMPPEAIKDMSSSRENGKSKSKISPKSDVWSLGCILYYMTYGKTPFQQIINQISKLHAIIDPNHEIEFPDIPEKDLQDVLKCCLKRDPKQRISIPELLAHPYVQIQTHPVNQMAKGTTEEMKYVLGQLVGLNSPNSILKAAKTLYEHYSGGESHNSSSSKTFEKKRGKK
Summary of the method: as §1

[4] = target: T3, DAPK3 (Homo sapiens, UniProt O43293); details: read-out: Tm shift DAPK3
T3 construct: purchased in-house (SGC Oxford thermal shift panel)
Summary of the method: as §1

[5] = target: T4, LYN (Homo sapiens, UniProt P07948); details: read-out: Tm shift LYN
T4 construct: purchased in-house (SGC Oxford thermal shift panel)
Summary of the method: as §1

[6] = target: T5, BARK2 (Homo sapiens, UniProt P35626); details: read-out: Tm shift BARK2
T5 sequence (P35626 1-688): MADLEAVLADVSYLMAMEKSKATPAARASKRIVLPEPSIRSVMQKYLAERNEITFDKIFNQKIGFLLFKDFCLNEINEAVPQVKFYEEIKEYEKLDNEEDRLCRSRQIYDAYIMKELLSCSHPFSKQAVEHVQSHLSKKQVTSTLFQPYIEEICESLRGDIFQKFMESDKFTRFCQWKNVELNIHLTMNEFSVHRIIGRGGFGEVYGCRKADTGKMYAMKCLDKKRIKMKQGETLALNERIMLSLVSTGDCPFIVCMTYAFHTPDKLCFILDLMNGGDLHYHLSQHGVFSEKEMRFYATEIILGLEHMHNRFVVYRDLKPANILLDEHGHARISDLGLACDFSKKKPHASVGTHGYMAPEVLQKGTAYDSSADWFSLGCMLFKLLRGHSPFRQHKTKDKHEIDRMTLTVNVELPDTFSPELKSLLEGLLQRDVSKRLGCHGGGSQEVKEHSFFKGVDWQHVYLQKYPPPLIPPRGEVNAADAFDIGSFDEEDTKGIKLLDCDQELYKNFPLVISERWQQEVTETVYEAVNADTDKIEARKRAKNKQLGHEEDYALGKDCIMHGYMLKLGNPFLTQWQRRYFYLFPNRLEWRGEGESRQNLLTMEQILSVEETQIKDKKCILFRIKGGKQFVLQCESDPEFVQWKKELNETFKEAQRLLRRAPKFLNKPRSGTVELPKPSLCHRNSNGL
Summary of the method: as §1

[7] = target: T6, SgK085 (Homo sapiens, UniProt Q86YV6); details: read-out: Tm shift SgK085
T6 sequence (Q86YV6 1-388): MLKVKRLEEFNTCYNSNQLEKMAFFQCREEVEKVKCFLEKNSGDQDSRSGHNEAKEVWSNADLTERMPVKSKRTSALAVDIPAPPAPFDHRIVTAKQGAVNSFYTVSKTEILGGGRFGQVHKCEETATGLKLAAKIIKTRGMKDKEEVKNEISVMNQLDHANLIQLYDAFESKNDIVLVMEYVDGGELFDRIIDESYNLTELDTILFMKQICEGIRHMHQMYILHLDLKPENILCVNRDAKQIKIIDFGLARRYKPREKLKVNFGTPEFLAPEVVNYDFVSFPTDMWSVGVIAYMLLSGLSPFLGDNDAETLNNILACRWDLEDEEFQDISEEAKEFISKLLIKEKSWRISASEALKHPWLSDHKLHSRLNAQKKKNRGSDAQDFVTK
Summary of the method: as §1

T3 sequence (O43293 whole entry): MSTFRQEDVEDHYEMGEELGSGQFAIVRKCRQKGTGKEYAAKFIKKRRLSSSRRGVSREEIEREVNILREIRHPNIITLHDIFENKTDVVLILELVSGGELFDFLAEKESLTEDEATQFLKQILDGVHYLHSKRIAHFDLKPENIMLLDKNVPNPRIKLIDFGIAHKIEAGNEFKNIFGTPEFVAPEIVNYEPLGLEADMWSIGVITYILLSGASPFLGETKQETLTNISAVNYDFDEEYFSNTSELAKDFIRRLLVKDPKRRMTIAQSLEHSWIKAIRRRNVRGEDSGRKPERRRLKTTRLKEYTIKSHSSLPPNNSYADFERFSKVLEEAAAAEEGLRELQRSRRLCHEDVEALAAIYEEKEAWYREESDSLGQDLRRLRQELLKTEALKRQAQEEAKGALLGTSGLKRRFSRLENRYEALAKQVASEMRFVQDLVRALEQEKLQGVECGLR
T4 sequence (P07948 whole entry): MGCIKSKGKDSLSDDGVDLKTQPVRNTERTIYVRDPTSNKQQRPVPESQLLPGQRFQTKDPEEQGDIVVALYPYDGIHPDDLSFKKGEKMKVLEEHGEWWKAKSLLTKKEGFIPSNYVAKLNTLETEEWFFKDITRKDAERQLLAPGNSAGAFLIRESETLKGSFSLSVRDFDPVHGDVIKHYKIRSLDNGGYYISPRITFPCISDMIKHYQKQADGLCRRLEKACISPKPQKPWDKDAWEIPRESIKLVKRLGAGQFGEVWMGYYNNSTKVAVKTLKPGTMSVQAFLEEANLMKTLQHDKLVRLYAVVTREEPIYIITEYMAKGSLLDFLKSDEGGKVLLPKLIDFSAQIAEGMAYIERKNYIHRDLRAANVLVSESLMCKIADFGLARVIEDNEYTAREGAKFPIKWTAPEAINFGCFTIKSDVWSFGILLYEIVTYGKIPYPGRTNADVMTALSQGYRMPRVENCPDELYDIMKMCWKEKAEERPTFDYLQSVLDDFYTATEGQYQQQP
PKN2, sequence (Q16513 whole entry): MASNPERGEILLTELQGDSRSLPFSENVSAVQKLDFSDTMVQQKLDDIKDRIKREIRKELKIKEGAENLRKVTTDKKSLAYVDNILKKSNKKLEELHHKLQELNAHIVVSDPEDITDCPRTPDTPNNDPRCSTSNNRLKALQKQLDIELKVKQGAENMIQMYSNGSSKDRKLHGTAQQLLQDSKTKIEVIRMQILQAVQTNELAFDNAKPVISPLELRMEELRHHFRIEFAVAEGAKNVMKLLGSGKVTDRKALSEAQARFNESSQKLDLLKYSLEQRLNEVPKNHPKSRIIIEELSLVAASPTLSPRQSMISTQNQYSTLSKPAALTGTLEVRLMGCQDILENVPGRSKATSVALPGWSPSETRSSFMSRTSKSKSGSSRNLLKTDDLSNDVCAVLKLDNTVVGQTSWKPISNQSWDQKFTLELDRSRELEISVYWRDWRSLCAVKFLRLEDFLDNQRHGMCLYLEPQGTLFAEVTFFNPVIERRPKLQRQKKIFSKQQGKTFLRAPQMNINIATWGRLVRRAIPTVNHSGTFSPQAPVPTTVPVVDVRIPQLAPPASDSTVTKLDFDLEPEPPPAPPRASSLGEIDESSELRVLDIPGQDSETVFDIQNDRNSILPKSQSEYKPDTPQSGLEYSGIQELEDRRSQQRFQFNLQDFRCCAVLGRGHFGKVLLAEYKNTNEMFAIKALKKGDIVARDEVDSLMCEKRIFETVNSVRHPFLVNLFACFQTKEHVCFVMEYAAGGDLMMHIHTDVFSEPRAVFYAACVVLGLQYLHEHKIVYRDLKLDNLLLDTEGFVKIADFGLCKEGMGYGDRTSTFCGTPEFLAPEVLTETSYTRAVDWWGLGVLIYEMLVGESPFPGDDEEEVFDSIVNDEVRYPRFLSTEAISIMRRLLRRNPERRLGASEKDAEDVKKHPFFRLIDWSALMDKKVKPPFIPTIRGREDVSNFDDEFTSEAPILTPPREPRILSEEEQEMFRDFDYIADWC

Structure (SMILES)	ΔTm at 10 µM [1] [°C]	ΔTm at 10 µM [2] [°C]	ΔTm at 10 µM [3] [°C]	ΔTm at 10 µM [4] [°C]	ΔTm at 10 µM [5] [°C]	ΔTm at 10 µM [6] [°C]	ΔTm at 10 µM [7] [°C]	ΔTm at 10 µM ([1]; inhibitor 10 μM) [°C]	ΔTm at 10 µM ([2]; inhibitor 10 μM) [°C]	ΔTm at 10 µM ([3]; inhibitor 10 μM) [°C]	ΔTm at 10 µM ([4]; inhibitor 10 μM) [°C]	ΔTm at 10 µM ([5]; inhibitor 10 μM) [°C]	ΔTm at 10 µM ([6]; inhibitor 10 μM) [°C]	ΔTm at 10 µM ([7]; inhibitor 10 μM) [°C]
CCOC(=O)c1c(/C(C#N)=C\N)c2ccc(Cl)c(Cl)c2n1C [KH-CB19, (E)-Ethyl 3-(2-Amino-1-Cyanovinyl)-6,7-Dichloro-1-Methyl-1H-Indole-2-Carboxylate]	-0.2	0.6	0.5	2.2	0.2	-0.4	4.1	–	–	–	–	–	–	–
CCOC(=O)c1c(C(C#N)=CN)c2ccc(Cl)c(Cl)c2n1C (mixture of isomers) [KH-CB20, (E/Z)-Ethyl 3-(2-Amino-1-Cyanovinyl)-6,7-Dichloro-1-Methyl-1H-Indole-2-Carboxylate]	0.1	0.1	0.3	2.2	0	-0.1	4.5	–	–	–	–	–	–	–
NC1=NC(=O)/C(=C2\CCNC(=O)c3[nH]c(Br)cc32)N1 [Hymenialdisine, hymenialdisine, reference compound]	–	–	–	–	–	–	–	-0.2	0.8	0.7	7.6	0.3	-0.3	2.7
CCOC(=O)c1c(C(C#N)=CN(C)C)c2ccc(Cl)c(Cl)c2n1C (mixture of isomers) [compound 2, (E/Z)-Ethyl 6,7-Dichloro-3-[1-Cyano-2-(Dimethylamino)Vinyl]-1-Methyl-1H-Indole-2-Carboxylate]	–	–	–	–	–	–	–	0.4	-0.5	-0.1	0.3	0	0.2	0.4
Cn1c2c(Cl)c(Cl)ccc2c2c(C#N)c[nH]c(=O)c21 [compound 3, 7,8-Dichloro-9-Methyl-1-Oxo-2,9-Dihydro-1H-Pyrido[3,4-b]Indole-4-Carbonitrile]	–	–	–	–	–	–	–	0.5	2.3	1.8	2	0.2	0.3	2.9
